Literature values, collected in Sander's compilation of Henry's law constants (doi:10.1021/je0002282).

Test: Henry solubility constant Hcp at 298.15 K (mol/(m3 Pa))
Settings: reference: Plyasunov and Shock (2001); cited value

Henry solubility constant Hcp | Compound
0.13 | CCCC(C)=O [2-pentanone]
0.11 | CCC(=O)CC [3-pentanone]
0.072 | CCCCCC(C)=O [2-heptanone]
0.075 | CCCC(=O)CC [3-hexanone]
0.098 | CCCCC(C)=O [2-hexanone]
0.061 | CCCC(=O)CCC [4-heptanone]

The remaining lines, values behind:

Compound | Henry solubility constant Hcp
CC(=O)C(C)(C)C [3,3-dimethyl-2-butanone] | 0.045
CC(C)=O [propanone] | 0.27
CCCCCCC(C)=O [2-octanone] | 0.058
CC(=O)C(C)C [3-methyl-2-butanone] | 0.091
CCC(=O)C(C)C [2-methyl-3-pentanone] | 0.053
CCCCCCCCCC(C)=O [2-undecanone] | 0.019
CC(C)C(=O)C(C)C [2,4-dimethyl-3-pentanone] | 0.024
CC(C)CC(=O)CC(C)C [2,6-dimethyl-4-heptanone] | 0.013
CCCCCCCC(C)=O [2-nonanone] | 0.037
CC(=O)CC(C)C [4-methyl-2-pentanone] | 0.069
